Experimental data published in the NIST ThermoML archive (doi:10.1021/je0501944).
± gives the expanded uncertainty stated by the source.

How the values were obtained:
[1] = xn = mol fraction of the nth substance listed; settings: 298.15 K, 101 kPa, Liquid; for viscosity: Capillary tube (Ostwald / Ubbelohde) method
[2] = 298.15 K, 101.33 kPa, Liquid; for viscosity: Capillary tube (Ostwald / Ubbelohde) method

Question: Which viscosity ([1]; x2 = 0.0407) does the source give for C1CCCCC1 [cyclohexane] + Cc1ccccc1 here?
Answer: Its viscosity is 0.8158 ± 0.0073 mPa·s.

Question: What about the viscosity ([1]; x2 = 0.2018) of the same molecule?
Answer: The viscosity was 0.7133 ± 0.0066 mPa·s.

Question: And the viscosity ([1]; x2 = 0.2798)?
Answer: Its viscosity is 0.6687 ± 0.0063 mPa·s.

Question: What about the viscosity ([1]; x2 = 0.3613) of the same molecule?
Answer: The viscosity was 0.6305 ± 0.006 mPa·s.

Question: And the viscosity ([1]; x2 = 0.4416)?
Answer: Its viscosity is 0.6081 ± 0.0058 mPa·s.

Question: And the viscosity ([1]; x2 = 0.6003)?
Answer: The viscosity was 0.566 ± 0.0056 mPa·s.

Question: What about the viscosity ([1]; x2 = 0.6784) of the same molecule?
Answer: Its viscosity is 0.5534 ± 0.0055 mPa·s.

Question: And the viscosity ([1]; x2 = 0.7615)?
Answer: Its viscosity is 0.5429 ± 0.0055 mPa·s.

Question: And the viscosity ([1]; x2 = 0.8396)?
Answer: Its viscosity is 0.5395 ± 0.0055 mPa·s.

Question: And the viscosity ([1]; x2 = 0.9202)?
Answer: The viscosity was 0.5393 ± 0.0055 mPa·s.

Question: What about the mass density ([1]; x2 = 0.0407) of the same molecule?
Answer: The mass density was 776.48 ± 0.37 kg/m3.

Question: What about the mass density ([1]; x2 = 0.2018) of the same molecule?
Answer: The mass density was 788.44 ± 0.38 kg/m3.

Question: What about the mass density ([1]; x2 = 0.2798) of the same molecule?
Answer: The mass density was 794.63 ± 0.39 kg/m3.

Question: What about the mass density ([1]; x2 = 0.3613) of the same molecule?
Answer: Its mass density is 801.33 ± 0.4 kg/m3.

Question: What about the mass density ([1]; x2 = 0.4416) of the same molecule?
Answer: The mass density was 808.17 ± 0.41 kg/m3.

Question: And the mass density ([1]; x2 = 0.6003)?
Answer: The mass density was 822.4 ± 0.42 kg/m3.

Question: And the mass density ([1]; x2 = 0.6784)?
Answer: The mass density was 829.75 ± 0.44 kg/m3.

Question: And the mass density ([1]; x2 = 0.7615)?
Answer: Its mass density is 837.82 ± 0.45 kg/m3.

Question: And the mass density ([1]; x2 = 0.8396)?
Answer: Its mass density is 845.63 ± 0.46 kg/m3.

Question: And the mass density ([1]; x2 = 0.9202)?
Answer: Its mass density is 853.94 ± 0.47 kg/m3.

Question: For CCCCC [pentane] + Cc1ccccc1, which viscosity ([1]; x2 = 0.0415) is on record?
Answer: Its viscosity is 0.2029 ± 0.0026 mPa·s.

Question: What about the viscosity ([1]; x2 = 0.2011) of the same molecule?
Answer: Its viscosity is 0.2231 ± 0.0028 mPa·s.

Question: What about the viscosity ([1]; x2 = 0.2799) of the same molecule?
Answer: The viscosity was 0.2386 ± 0.0029 mPa·s.

Question: What about the viscosity ([1]; x2 = 0.3647) of the same molecule?
Answer: The viscosity was 0.2592 ± 0.0031 mPa·s.

Question: What about the viscosity ([1]; x2 = 0.4341) of the same molecule?
Answer: The viscosity was 0.2786 ± 0.0033 mPa·s.

Question: And the viscosity ([1]; x2 = 0.6011)?
Answer: The viscosity was 0.3367 ± 0.0038 mPa·s.

Question: And the viscosity ([1]; x2 = 0.6821)?
Answer: The viscosity was 0.3688 ± 0.0041 mPa·s.

Question: What about the viscosity ([1]; x2 = 0.7502) of the same molecule?
Answer: Its viscosity is 0.3999 ± 0.0044 mPa·s.

Question: And the viscosity ([1]; x2 = 0.8213)?
Answer: Its viscosity is 0.4371 ± 0.0047 mPa·s.

Question: What about the viscosity ([1]; x2 = 0.9137) of the same molecule?
Answer: The viscosity was 0.4891 ± 0.0051 mPa·s.

Question: What about the mass density ([1]; x2 = 0.0415) of the same molecule?
Answer: Its mass density is 630.69 ± 0.55 kg/m3.

Question: What about the mass density ([1]; x2 = 0.2011) of the same molecule?
Answer: The mass density was 668.27 ± 0.54 kg/m3.

Question: And the mass density ([1]; x2 = 0.2799)?
Answer: Its mass density is 687.21 ± 0.53 kg/m3.

Question: What about the mass density ([1]; x2 = 0.3647) of the same molecule?
Answer: The mass density was 707.61 ± 0.53 kg/m3.

Question: What about the mass density ([1]; x2 = 0.4341) of the same molecule?
Answer: Its mass density is 724.3 ± 0.52 kg/m3.

Question: And the mass density ([1]; x2 = 0.6011)?
Answer: Its mass density is 764.45 ± 0.51 kg/m3.

Question: And the mass density ([1]; x2 = 0.6821)?
Answer: The mass density was 783.95 ± 0.5 kg/m3.

Question: What about the mass density ([1]; x2 = 0.7502) of the same molecule?
Answer: Its mass density is 800.32 ± 0.5 kg/m3.

Question: What about the mass density ([1]; x2 = 0.8213) of the same molecule?
Answer: Its mass density is 817.43 ± 0.49 kg/m3.

Question: And the mass density ([1]; x2 = 0.9137)?
Answer: Its mass density is 840.19 ± 0.49 kg/m3.

Question: With CCCCC [pentane] + C1CCCCC1 as the molecule, how does the viscosity ([1]; x2 = 0.0437) read?
Answer: Its viscosity is 0.2065 ± 0.0025 mPa·s.

Question: What about the viscosity ([1]; x2 = 0.2145) of the same molecule?
Answer: Its viscosity is 0.2555 ± 0.0029 mPa·s.

Question: What about the viscosity ([1]; x2 = 0.2955) of the same molecule?
Answer: The viscosity was 0.2828 ± 0.0031 mPa·s.

Question: And the viscosity ([1]; x2 = 0.3753)?
Answer: The viscosity was 0.3128 ± 0.0034 mPa·s.

Question: What about the viscosity ([1]; x2 = 0.4595) of the same molecule?
Answer: Its viscosity is 0.3503 ± 0.0037 mPa·s.

Question: What about the viscosity ([1]; x2 = 0.6125) of the same molecule?
Answer: Its viscosity is 0.4425 ± 0.0046 mPa·s.

Question: And the viscosity ([1]; x2 = 0.7048)?
Answer: Its viscosity is 0.5146 ± 0.0052 mPa·s.

Question: What about the viscosity ([1]; x2 = 0.7791) of the same molecule?
Answer: The viscosity was 0.5847 ± 0.0059 mPa·s.

Question: What about the viscosity ([1]; x2 = 0.8514) of the same molecule?
Answer: Its viscosity is 0.6591 ± 0.0066 mPa·s.

Question: What about the viscosity ([1]; x2 = 0.9254) of the same molecule?
Answer: The viscosity was 0.7641 ± 0.0076 mPa·s.

Question: What about the mass density ([1]; x2 = 0.0437) of the same molecule?
Answer: The mass density was 627.56 ± 0.49 kg/m3.

Question: What about the mass density ([1]; x2 = 0.2145) of the same molecule?
Answer: Its mass density is 653.09 ± 0.48 kg/m3.

Question: What about the mass density ([1]; x2 = 0.2955) of the same molecule?
Answer: The mass density was 665.44 ± 0.47 kg/m3.

Question: What about the mass density ([1]; x2 = 0.3753) of the same molecule?
Answer: Its mass density is 677.59 ± 0.47 kg/m3.

Question: What about the mass density ([1]; x2 = 0.4595) of the same molecule?
Answer: The mass density was 690.43 ± 0.47 kg/m3.

Question: What about the mass density ([1]; x2 = 0.6125) of the same molecule?
Answer: The mass density was 713.75 ± 0.47 kg/m3.

Question: What about the mass density ([1]; x2 = 0.7048) of the same molecule?
Answer: Its mass density is 727.81 ± 0.48 kg/m3.

Question: What about the mass density ([1]; x2 = 0.7791) of the same molecule?
Answer: The mass density was 739.14 ± 0.48 kg/m3.

Question: And the mass density ([1]; x2 = 0.8514)?
Answer: Its mass density is 750.15 ± 0.49 kg/m3.

Question: What about the mass density ([1]; x2 = 0.9254) of the same molecule?
Answer: The mass density was 761.85 ± 0.49 kg/m3.

Question: Which mass density [2] does the source give for Cc1ccccc1 [toluene] here?
Answer: Its mass density is 862.19 ± 0.62 kg/m3.

Question: What about the viscosity [2] of the same molecule?
Answer: The viscosity was 0.552 ± 0.006 mPa·s.

Question: With CCCCC [pentane] as the molecule, how does the mass density [2] read?
Answer: Its mass density is 621.32 ± 0.99 kg/m3.

Question: What about the viscosity [2] of the same molecule?
Answer: Its viscosity is 0.219 ± 0.005 mPa·s.

Question: For C1CCCCC1 [cyclohexane], which mass density [2] is on record?
Answer: The mass density was 773.93 ± 0.37 kg/m3.

Question: And the viscosity [2]?
Answer: The viscosity was 0.894 ± 0.007 mPa·s.
